Measured values: patent US20050272766A1, “1-Glyoxylamide indolizines for treating lung and ovarian cancer” (Synta Pharmaceuticals Corp., priority 2004, published 2005)
Marks after values point to notes of the source that are not given here.

Legend:
[1] = test system: BG-1-TR1 human ovarian cancer; assay: Antitumor efficacy against BG-1-TR1 human ovarian cancer implanted subcutaneously in nude mice
Description: (§1) Compound (1) was suspended in 1% methylcellulose solution (Wako, Osaka, 400 c.p., and distilled water) and was stored at 4° C.
(§2) Female mice, 8 weeks old (strain BALB/c-nu/nu, CLEA Japan Inc., Tokyo) were obtained and adapted for 5 days at experimental conditions and used at 10 weeks old. Experimental conditions included temperature of 21-27° C.; relative humidity of 40-70%; ventilation>10 times/hour; fluorescent light for 12-hour light (8:00-20:00)/12-hour dark; ad libitium access to food (irradiated CA-1, CLEA Japan Inc., Tokyo) and water (Osaka city tap water).
(§3) Statistical analyses versus control group and between selected groups were performed using a spreadsheet program to run Welch's test and Dunnett's multiple comparison test.
(§4) Tumor size and body weight were scored at least twice a week throughout the experiment. Tumor size was captured utilizing CD-10C compatible electric calipers (Mitsutoyo Corp., Kawasaki) and animal weight was automatically captured from the balance (A/D, Tokyo). The tumor volume was calculated by the following formula: [Tumor volume=(Length×Width×Width)/2]. The relative tumor volume (RV) was calculated as RV=Vn/Vo, where Vn: tumor volume on day n, and Vo: initial tumor volume. Judgment was performed one day (Examples 6 and 9) or three days (Examples 7 and 8) after the last dosing.
(§5) Animal experiments were performed using Tumor Measuring & Tracking System (VISIONS Co. Ltd., Tokyo). An experiment consisted of 8 mice per group (Examples 6 and 9) or 6 mice per group (Examples 7 and 8). Tumor samples were implanted subcutaneously into the back of mice (day 0). Tumor-implanted animals were randomized to groups based upon tumor volume and body weight when tumor volume reached approximately 100-200 mm^3. The control group was given vehicle (1% methylcellulose solution). The doses were calculated on the basis of up-to-date body weights of the mice (0.1 mL/10 g body weight). The mice were non-fasted during an entire course of the experiment.
The tumor sample implanted included BG-1-TR1 cells (3×10^6/0.1 ml of 5 mg/ml matrigel solution, BD Biosciences, Bedford, Mass.). Implanted animals were randomized at 20 days. Compound (1) was orally administered daily for 14 days from day 20 to 33.

[2] = test system: Ma44 human lung squamous cell carcinoma; conditions: in vivo
Description: (§6) Compound (1) was suspended in 1% methylcellulose solution (Wako, Osaka, 400 c.p., and distilled water) and was stored at 4° C. Paclitaxel (Sigma St. Louis, Mo.) was dissolved in dimethylsulfoxide (DMSO, Nakarai-Tesk, Tokyo) and stored at 4° C., and was prepared in a solution of 10% DMSO, 18% Cremophore RH-40 (Nikko Chemicals) and 72% distilled water before use.
as §2, §3, §4, §5
(§7) Ma44 human lung squamous cell carcinoma was maintained by in vitro passage with using Eagle's Minimum Essential Medium (Nissui Pharmaceutical Co., Tokyo) supplemented with 10% fetal calf serum (Life Technologies Inc, MD). Ma44 cells (5×10^5/0.1 mL) were implanted and the animals were randomized at 11 days. Compound (1) was orally administered daily for 14 days. Paclitaxel solution (DMSO/Cremophore/distilled water) was prepared as above and administered intravenously 6 times (3 times per week×2).

[3] = test system: RERF-LC-AI/TXL carcinoma; assay: Antitumor efficacy against RERF-LC-AI/TXL human lung cancer fragment implanted subcutaneously in nude mice; conditions: for % inhibition: day 24
Description: as §6, §2, §3, §4, §5
(§8) The tumor sample implanted was a fragment of RERF-LC-AI/TXL carcinoma. Implanted animals were randomized at 11 days. Compound (1) was orally administered daily for 14 days. Paclitaxel solution (DMSO/Cremophore/distilled water) was prepared as above. and administered intravenously 6 times (3 times per week×2, day 11, 13, 15, 18, 20 and 22).

[4] = Body weight of treated mice (summary statement, Examples 1-4); format: in vivo
Description: as §4

[5] = test system: Ma44 human lung squamous cell carcinoma; assay: Antitumor efficacy against Ma44 human lung squamous cell carcinoma implanted subcutaneously in nude mice; conditions: for % inhibition: day 27; for RV on day 27 (Mean +/- SD), relative tumor volume: nude mice; for growth inhibition (% inhibition): p<0.01
Description: as §6, §2, §3, §4, §5, §7

[6] = test system: RERF-LC-AI carcinoma; assay: Antitumor efficacy against RERF-LC-AI human lung cancer fragment implanted subcutaneously in nude mice; conditions: for % inhibition: day 26
Description: as §1, §2, §3
Tumor size and body weight were scored at least twice a week throughout the experiment. Tumor size was captured utilizing CD-10C compatible electric calipers (Mitsutoyo Corp., Kawasaki) and animal weight was automatically captured from the balance (A/D, Tokyo). The tumor volume was calculated by the following formula: [Tumor volume=(Length×Width×Width)/2]. The relative tumor volume (RV) was calculated as RV=Vn/Vo, where Vn: tumor volume on day n, and Vo: initial tumor volume.
Animal experiments were performed using Tumor Measuring & Tracking System (VISIONS Co. Ltd., Tokyo). […] Tumor samples were implanted subcutaneously into the back of mice (day 0). Tumor-implanted animals were randomized to groups based upon tumor volume and body weight when tumor volume reached approximately 100-200 mm^3. The control group was given vehicle (1% methylcellulose solution). The doses were calculated on the basis of up-to-date body weights of the mice (0.1 mL/10 g body weight). The mice were non-fasted during an entire course of the experiment.
The tumor sample implanted was a fragment of RERF-LC-AI carcinoma. Implanted animals were randomized at 10 days. Compound (1) was orally administered daily for 14 days.

[7] = test system: RERF-LC-AI/TXL carcinoma; conditions: in vivo
Description: as §6, §2, §3, §4, §5, §8

[8] = 25 mg/kg x 14, oral daily, day 11-24
[9] = 50 mg/kg x 14, oral daily, 5 surviving mice
[10] = 20 mg/kg x 6, intravenous, day 10, 12, 14, 17, 19 and 21
[11] = 20 mg/kg, maximum tolerated dose for nude mice in this schedule

## Cc1cc(NC(=O)C(=O)c2cc(Cc3ccc(C#N)cc3)n3ccccc23)sn1 [Compound (1), 2-(3-(4-cyanobenzyl)indolizin-1-yl)-N-(3-methylisothiazol-5-yl)-2-oxoacetamide]
[1]; 12.5 mg/kg x 14, oral daily
  % inhibition: 27.4%
  MBWL, maximum body weight loss (% of initial): 0%
[1]; 12.5 mg/kg x 14, oral daily, from day 20 to 33
  RV (Mean +/- SD), relative tumor volume on day 34: 1.6 ± 0.7
[1]; 25 mg/kg and 50 mg/kg daily oral dosing groups
  body weight losses: mild
[1]; 25 mg/kg x 14, oral daily
  % inhibition: 27.5%
[1]; 25 mg/kg x 14, oral daily, from day 20 to 33
  RV (Mean +/- SD), relative tumor volume on day 34: 1.6 ± 0.5
[1]; 25 mg/kg x 14, oral daily, maximum on d24
  MBWL, maximum body weight loss (% of initial): 1.9% (d24)
[1]; 50 mg/kg x 14, oral daily, from day 20 to 33
  RV (Mean +/- SD), relative tumor volume on day 34: 0.9 ± 0.3
[1]; 50 mg/kg x 14, oral daily, maximum on d34
  MBWL, maximum body weight loss (% of initial): 8.7% (d34)
[1]; oral administration, BG1-TR1, summary
  percent inhibition of cancer cells: up to 61%
[2]
  mice found dead: one of eight mice
[3]; 25 mg/kg x 14, oral daily
  MBWL, maximum body weight loss (% of initial): 1%
  % inhibition: 36.2%
[3]; 25 mg/kg x 14, oral daily, from day 10 to 23, nude mice
  RV on day 24 (Mean +/- SD), relative tumor volume: 26.49 ± 13.41
[3]; 50 mg/kg daily oral dosing, evaluation day 27
  growth inhibition: 68.8%
[3]; 50 mg/kg x 14, oral daily
  MBWL, maximum body weight loss (% of initial): 3%
  % inhibition: 63.9%
[3]; 50 mg/kg x 14, oral daily, 1 mouse, on day 16
  Toxic death: Toxic
[3]; 50 mg/kg x 14, oral daily, 7 surviving mice
  RV on day 24 (Mean +/- SD), relative tumor volume: 15.01 ± 6.45
[3]; oral administration, RERF/TXL, summary
  percent inhibition of cancer cells: ≤ 67%
[4]
  change in body weight: Minimal change in body weight
[5]; 25 mg/kg x 14, oral daily
  MBWL, maximum body weight loss (% of initial): 3%
[5]; [8]
  % inhibition: 35.2%
  RV on day 27 (Mean +/- SD), relative tumor volume: 10.0 ± 1.4
[5]; 50 mg/kg daily oral dosing
  body weight losses: mild
  growth inhibition (% inhibition): 63.9%
[5]; 50 mg/kg x 14, oral daily
  MBWL, maximum body weight loss (% of initial): 5%
  % inhibition: 68.8%
  RV on day 27 (Mean +/- SD), relative tumor volume: 4.8 ± 1.7
[5]; lower dose, daily oral
  growth inhibition (% inhibition): 36.2%
[5]; oral administration, Ma44, summary
  percent inhibition of cancer cells: ≤ 64%
[6]; 25 mg/kg x 14, oral daily
  MBWL, maximum body weight loss (% of initial): 4%
  % inhibition: 64.9%
[6]; 25 mg/kg x 14, oral daily, day 10-23, nude mice
  RV on day 26 (Mean +/- SD), relative tumor volume: 14.1 ± 73
[6]; 50 mg/kg x 14, oral daily, 1 of 6 mice, on day 21
  Toxic death: one of six mice
[6]; [9]
  MBWL, maximum body weight loss (% of initial): 14%
  RV on day 26 (Mean +/- SD), relative tumor volume: 8.2 ± 1.9
[6]; 50 mg/kg x 14, oral daily
  % inhibition: 79.7%
[6]; 75 mg/kg x 14, oral daily, 6 mice, on day 17-20
  Toxic death: All mice
[6]; oral administration, RERF-LC-AI, summary
  percent inhibition of cancer cells: ≤ 80%
[7]
  mice found dead: All mice

## CC(=O)O[C@H]1C(=O)[C@@]2(C)[C@H]([C@H](OC(=O)c3ccccc3)[C@]3(O)C[C@H](OC(=O)[C@H](O)[C@@H](NC(=O)c4ccccc4)c4ccccc4)C(C)=C1C3(C)C)[C@]1(OC(C)=O)CO[C@@H]1C[C@@H]2O [Paclitaxel, reference compound]
[1]; 20 mg/kg x 6, intravenous
  % inhibition: 8.3%
[1]; 20 mg/kg x 6, intravenous, day 20, 22, 24, 27, 29, 31, nude mice
  RV (Mean +/- SD), relative tumor volume on day 34: 2.0 ± 0.7
[1]; 20 mg/kg x 6, intravenous, maximum on d27
  MBWL, maximum body weight loss (% of initial): 4.5% (d27)
[1]; 20 mg/kg, maximum tolerated dose for nude mice in this schedule, BG-1 cells
  antitumor activity: neither significant nor effective
[3]; 10 mg/kg x 6, intravenous
  MBWL, maximum body weight loss (% of initial): 0%
  % inhibition: 24.8%
[3]; 10 mg/kg x 6, intravenous, day 10, 12, 14, 17, 19 and 21
  RV on day 24 (Mean +/- SD), relative tumor volume: 31.23 ± 6.69
[3]; 20 mg/kg x 6, intravenous
  MBWL, maximum body weight loss (% of initial): 0%
  % inhibition: 20.9%
[3]; [10]
  RV on day 24 (Mean +/- SD), relative tumor volume: 32.87 ± 10.03
[3]; [11]
  growth inhibition: 81.8%
[5]; 20 mg/kg x 6, intravenous
  MBWL, maximum body weight loss (% of initial): 3%
  % inhibition: 81.8%
[5]; 20 mg/kg x 6, intravenous, day 11, 13, 15, 18, 20 and 22
  RV on day 27 (Mean +/- SD), relative tumor volume: 2.8 ± 0.4^**e)
[5]; [11]
  antitumor activity: neither significant nor effective
[6]; 20 mg/kg x 6, intravenous
  MBWL, maximum body weight loss (% of initial): 7%
  % inhibition: 92.2%
[6]; [10]
  RV on day 26 (Mean +/- SD), relative tumor volume: 3.1 ± 0.8**^e)
